Key:
Melanocortin receptor 4 [1] = biological target: T1, Melanocortin receptor 4 (Homo sapiens, UniProt P32245, Y287A); experiment: Agonist activity at the mutant MC4R Y287A expressed in HEK293 cells by cAMP accumulation; format: functional, cell-based
Melanocortin receptor 4 [2] = biological target: T2, Melanocortin receptor 4 (Homo sapiens, UniProt P32245, I291A); experiment: Agonist activity at the mutant MC4R I291A expressed in HEK293 cells by cAMP accumulation; format: functional, cell-based
T2 sequence (P32245 whole entry I291A): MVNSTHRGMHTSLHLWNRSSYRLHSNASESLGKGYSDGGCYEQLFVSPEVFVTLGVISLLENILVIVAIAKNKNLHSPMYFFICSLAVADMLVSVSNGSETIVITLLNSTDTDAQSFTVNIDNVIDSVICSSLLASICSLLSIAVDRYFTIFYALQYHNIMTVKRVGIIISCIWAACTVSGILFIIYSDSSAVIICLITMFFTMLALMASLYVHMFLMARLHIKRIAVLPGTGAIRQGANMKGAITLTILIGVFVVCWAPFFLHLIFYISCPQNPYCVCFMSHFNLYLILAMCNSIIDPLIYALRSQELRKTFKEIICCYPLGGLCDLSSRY

Melanocortin receptor 4 [3] = biological target: T3, Melanocortin receptor 4 (Homo sapiens, UniProt P32245, I129A)
T3 sequence (P32245 whole entry I129A): as the sequence (P32245 whole entry I291A) above, with I129A, A291I counted along it

Melanocortin receptor 4 [4] = biological target: T1, Melanocortin receptor 4; experiment: Displacement of [125I]NDP-alpha-MSH from mutant MC4R Y287A expressed in HEK293 cells; format: cell-based
Melanocortin receptor 4 [5] = biological target: T4, Melanocortin receptor 4 (Homo sapiens, UniProt P32245, Y268A); experiment: Agonist activity at the mutant MC4R Y268A expressed in HEK293 cells by cAMP accumulation; format: functional, cell-based
T4 sequence (P32245 whole entry Y268A): as the sequence (P32245 whole entry I291A) above, with Y268A, A291I counted along it

Melanocortin receptor 4 [6] = biological target: T5, Melanocortin receptor 4 (Homo sapiens, UniProt P32245, I125A); experiment: Displacement of [125I]NDP-alpha-MSH from mutant MC4R I125A expressed in HEK293 cells; format: cell-based
T5 sequence (P32245 whole entry I125A): as the sequence (P32245 whole entry I291A) above, with I125A, A291I counted along it

Melanocortin receptor 4 [7] = biological target: T3, Melanocortin receptor 4; experiment: biochemical
Melanocortin receptor 4 [8] = biological target: T6, Melanocortin receptor 4 (Homo sapiens, UniProt P32245, F184A); experiment: Displacement of [125I]NDP-alpha-MSH from mutant MC4R F184A expressed in HEK293 cells; format: cell-based
T6 sequence (P32245 whole entry F184A): as the sequence (P32245 whole entry I291A) above, with F184A, A291I counted along it

Melanocortin receptor 4 [9] = biological target: T7, Melanocortin receptor 4 (Homo sapiens, UniProt P32245, Y268F); experiment: Displacement of [125I]NDP-alpha-MSH from mutant MC4R Y268F expressed in HEK293 cells; format: cell-based
T7 sequence (P32245 whole entry Y268F): as the sequence (P32245 whole entry I291A) above, with Y268F, A291I counted along it

Melanocortin receptor 4 [10] = biological target: T5, Melanocortin receptor 4; experiment: Agonist activity at the mutant MC4R I125A expressed in HEK293 cells by cAMP accumulation; format: functional, cell-based
Melanocortin receptor 4 [11] = biological target: T8, Melanocortin receptor 4 (Homo sapiens, UniProt P32245); experiment: biochemical
T8 sequence (P32245 whole entry): as the sequence (P32245 whole entry I291A) above, with A291I counted along it

Melanocortin receptor 4 [12] = biological target: T4, Melanocortin receptor 4; experiment: Displacement of [125I]NDP-alpha-MSH from mutant MC4R Y268A expressed in HEK293 cells; format: cell-based
Melanocortin receptor 4 [13] = biological target: T7, Melanocortin receptor 4; experiment: Agonist activity at the mutant MC4R Y268F expressed in HEK293 cells by cAMP accumulation; format: functional, cell-based
Melanocortin receptor 4 [14] = biological target: T9, Melanocortin receptor 4 (Homo sapiens, UniProt P32245, Y287F); experiment: Agonist activity at the mutant MC4R Y287F expressed in HEK293 cells by cAMP accumulation; format: functional, cell-based
T9 sequence (P32245 whole entry Y287F): as the sequence (P32245 whole entry I291A) above, with Y287F, A291I counted along it

Melanocortin receptor 4 [15] = biological target: T9, Melanocortin receptor 4; experiment: Displacement of [125I]NDP-alpha-MSH from mutant MC4R Y287F expressed in HEK293 cells; format: cell-based
Melanocortin receptor 4 [16] = biological target: T8, Melanocortin receptor 4; experiment: Agonist activity at the human wild type MC4R expressed in HEK293 cells by cAMP accumulation; format: functional, cell-based
Melanocortin receptor 4 [17] = biological target: T6, Melanocortin receptor 4; experiment: Agonist activity at the mutant MC4R F184A expressed in HEK293 cells by cAMP accumulation; format: functional, cell-based
Melanocortin receptor 4 [18] = biological target: T5, Melanocortin receptor 4; experiment: Antagonist activity at the mutant MC4R I125A expressed in HEK293 cells by cAMP accumulation; format: functional, cell-based
Melanocortin receptor 4 [19] = biological target: T7, Melanocortin receptor 4; experiment: Antagonist activity at the mutant MC4R Y268F expressed in HEK293 cells by cAMP accumulation; format: functional, cell-based
Melanocortin receptor 4 [20] = biological target: T2, Melanocortin receptor 4; experiment: Antagonist activity at the mutant MC4R I291A expressed in HEK293 cells by cAMP accumulation; format: functional, cell-based
Melanocortin receptor 4 [21] = biological target: T4, Melanocortin receptor 4; experiment: Antagonist activity at the mutant MC4R Y268A expressed in HEK293 cells by cAMP accumulation; format: functional, cell-based
Melanocortin receptor 4 [22] = biological target: T6, Melanocortin receptor 4; experiment: Antagonist activity at the mutant MC4R F184A expressed in HEK293 cells by cAMP accumulation; format: functional, cell-based
Melanocortin receptor 4 [23] = biological target: T8, Melanocortin receptor 4; experiment: Antagonist activity at the human wild type MC4R expressed in HEK293 cells by cAMP accumulation; format: functional, cell-based
Melanocortin receptor 4 [24] = biological target: T9, Melanocortin receptor 4; experiment: Antagonist activity at the mutant MC4R Y287F expressed in HEK293 cells by cAMP accumulation; format: functional, cell-based
Melanocortin receptor 4 [25] = biological target: T1, Melanocortin receptor 4; experiment: Antagonist activity at the mutant MC4R Y287A expressed in HEK293 cells by cAMP accumulation; format: functional, cell-based

T1 sequence (P32245 whole entry Y287A): as the sequence (P32245 whole entry I291A) above, with Y287A, A291I counted along it

Structure (SMILES)	EC50 (Melanocortin receptor 4 [1])	EC50 (Melanocortin receptor 4 [2])	EC50 (Melanocortin receptor 4 [3])	Ki (Melanocortin receptor 4 [4])	EC50 (Melanocortin receptor 4 [5])	Ki (Melanocortin receptor 4 [6])	Ki (Melanocortin receptor 4 [7])	Ki (Melanocortin receptor 4 [8])	Ki (Melanocortin receptor 4 [9])	EC50 (Melanocortin receptor 4 [10])	Ki (Melanocortin receptor 4 [11])	Ki (Melanocortin receptor 4 [12])	EC50 (Melanocortin receptor 4 [13])	EC50 (Melanocortin receptor 4 [14])	Ki (Melanocortin receptor 4 [15])	EC50 (Melanocortin receptor 4 [16])	EC50 (Melanocortin receptor 4 [17])	other results
CC[C@H](C)[C@@H]1NC(=O)[C@H]([C@@H](C)O)NC(=O)[C@H](Cc2c[nH]c3ccccc23)NC(=O)[C@H](CCCN=C(N)N)NC(=O)[C@@H](Cc2ccccc2)NC(=O)[C@H](Cc2cnc[nH]2)NC(=O)[C@H]([C@@H](C)O)NC(=O)[C@H](Cc2ccc(O)cc2)NC(=O)[C@H](CO)NC(=O)[C@@H]2CCCN2C1=O	328 nM	250 nM	250 nM	1490 nM	270 nM	111 nM	710 nM	29 nM	83 nM	202 nM	59 nM	1370 nM	12 nM	9.5 nM	90 nM	11 nM	3.2 nM	
CN(C)[C@H]1C[C@@H](C(=O)N2CCC(Cn3cncn3)(C3CCCCC3)CC2)[C@H](c2ccc(Cl)cc2)C1	418 nM	> 1000 nM	1520 nM	2120 nM	33 nM	1250 nM	3100 nM	114 nM	275 nM	53 nM	305 nM	1020 nM	6.6 nM	10 nM	890 nM	9.5 nM	1.02 nM	
CC[C@H](C)[C@@H]1NC(=O)[C@H]([C@@H](C)O)NC(=O)[C@H](Cc2c[nH]c3ccccc23)NC(=O)[C@H](CCCN=C(N)N)NC(=O)[C@@H](Cc2cccc3ccccc23)NC(=O)[C@H](Cc2c[nH]cn2)NC(=O)[C@H]([C@@H](C)O)NC(=O)[C@H](Cc2ccc(O)cc2)NC(=O)[C@H]([C@@H](C)O)NC(=O)[C@@H]2CCCN2C1=O				18 nM		1.3 nM	14 nM	0.71 nM	0.92 nM		1.5 nM	40 nM			1.7 nM			IC50 (Melanocortin receptor 4 [18]): 5.8 nM; IC50 (Melanocortin receptor 4 [19]): 17 nM; IC50 (Melanocortin receptor 4 [20]): 22 nM; IC50 (Melanocortin receptor 4 [21]): 248 nM; IC50 (Melanocortin receptor 4 [22]): 11 nM; IC50 (Melanocortin receptor 4 [23]): 16 nM; IC50 (Melanocortin receptor 4 [24]): 8.8 nM; IC50 (Melanocortin receptor 4 [25]): 121 nM

— ChEMBL document CHEMBL1148620 (J Med Chem, 2006)
